Source: article PMC12718081 (ACS Infectious Diseases, 2025)
Several values for one entry are separate records, joined by “and”; a condition that tells them apart may be missing. Equal values may be shown once. Entries after “also recorded” stand apart in the source; their conditions may differ. Read-outs that look alike come from different tables or passages of the source.

Experiments:
Fh.TRPMPZQ = experiment: Ca2+ reporter (FLIPR) activation assay, Fh.TRPMPZQ in HEK293 cells; type: cell-based, Fasciola hepatica; details: at the tested concentrations, data not shown
Protocol: (§1) Finally, selectivity for Sm.TRPMPZQ was assessed by profiling responses on the F. hepatica (Fh.TRPMPZQ) and E. granulosus (Eg.TRPMPZQ) TRPMPZQ orthologs, as well as the schistosome TRPM paralog Sm.TRPMMCLZ, a distinct TRPM channel activated by meclonazepam. Meclonazepam is an anthelmintic benzodiazepine known for its toxicity to juvenile schistosome worms.
(§2) The Ca^2+ reporter assay was performed using a Fluorescence Imaging Plate Reader (FLIPR) system, as described in the Supporting Information. […]
(§3) The half-maximal inhibitory
(§4) Windows (GraphPad Software, Boston, MA, USA; www.graphpad.com). […]
(§5) with DMSO as a negative control. […]
(§6) reader. […] The fluorescence
(§7) Untransfected HEK293 cells were used as a control.
(§8) 10% fetal bovine serum (FBS). […]
(§9) atmosphere containing 5% CO₂. Following incubation, the growth medium was removed and […]
(§10) buffer containing 2.5 mM probenecid in HBSS (with Ca²⁺ and Mg²⁺), 20 mM HEPES, 0.3% BSA (Sigma, A7030), and 0.03% L-ascorbic acid (Sigma). Cells were incubated for 40 minutes at 37 °C and subsequently for 20 minutes at room temperature. A total of seven PZQ derivatives were tested, using racemic PZQ included as a positive control on each assay plate. Drug dilutions were prepared in assay buffer without dye and probenecid and dispensed into separate flat-bottom 384-well plates. Calcium flux measurements were performed at room temperature using a […]
(§11) instrument (Molecular Devices). Baseline fluorescence was recorded for 20 seconds, followed by the addition of 5 µL of each drug solution, after which fluorescence was measured continuously for 250 seconds. […]

[1] = system: HepG2 hepatic epithelial cells; experiment: in vitro; details: for Selectivity Index (CC50/EC50), Female: HepG2 CC50 / female worm motility EC50, 48 h; for Selectivity Index (CC50/EC50), Male: HepG2 CC50 / male worm motility EC50, 48 h
Protocol: (§12) Next, we conducted a more detailed investigation by performing dose–response assays with each compound on HepG2 hepatic epithelial cells, as the liver is one of the major organs affected in intestinal schistosomiasis.
(§13) More details are provided in the Supporting Information.
(§14) Adult worm ex-vivo high-content assay
(§15) Male and female worms were placed in 96-well microplates (one worm per well) and incubated […]
(§16) to 72 hours. Brightfield timelapse images (100 images, 0.3-second intervals) were captured from each well before, immediately after, and every 24 hours following compound addition using an ImageXpress Micro Confocal High Content System equipped with a 2x objective. Image analysis was performed through a custom pipeline in CellProfiler software (v. 4.2.1, Windows OS).57 During analysis, the area of each worm and its displacement between consecutive image captures (i.e., images taken at successive time points) were measured using the parameters “Area” and “False Negative Rate” from the MeasureObjectSizeShape and MeasureObjectOverlap modules, respectively. These measurements were then modeled by a multilevel generalized linear statistical model. The effects of the experimental treatments on parasite motility were estimated with the integrated nested Laplace approximation (INLA) method, available in the INLA package of R (https://www.r-inla.org). The half-maximal inhibitory concentration (EC50) of each compound was calculated based on the worms' estimated motility using the […] 4-parameter logistic equation in GraphPad Prism version 9.0.0 for Windows (GraphPad Software, Boston, MA, USA; www.graphpad.com). […]
(§17) either at a fixed concentration (10 µM) or across a range of concentrations (0.0001–300 µM), or with DMSO as a negative control. Two hours before the end of the experiment (t0), a resazurin solution (final concentration: 0.01 mg/mL) was added to each well and the first fluorescence […]
(§18) reader. At the end of the incubation (t1), a second reading was performed. The fluorescence attributed solely to resorufin was measured by subtracting the fluorescence readings at t0 from those at t1. The results were expressed as percentual cell viability considering negative control

in vitro = details: human, HepG2 cytotoxicity (CC50)
Protocol: as §12, §13, §14, §15, §16, §17, §18

Eg.TRPMPZQ = Eg.TRPMPZQ (Echinococcus granulosus, UniProt W6UVV9); experiment: cell-based; details: HEK293, Ca2+ reporter, mean ± standard deviation; for Emax: read-out: Bmax, Eg.TRPMPZQ activation
Eg.TRPMPZQ, sequence (W6UVV9 entry or part of it): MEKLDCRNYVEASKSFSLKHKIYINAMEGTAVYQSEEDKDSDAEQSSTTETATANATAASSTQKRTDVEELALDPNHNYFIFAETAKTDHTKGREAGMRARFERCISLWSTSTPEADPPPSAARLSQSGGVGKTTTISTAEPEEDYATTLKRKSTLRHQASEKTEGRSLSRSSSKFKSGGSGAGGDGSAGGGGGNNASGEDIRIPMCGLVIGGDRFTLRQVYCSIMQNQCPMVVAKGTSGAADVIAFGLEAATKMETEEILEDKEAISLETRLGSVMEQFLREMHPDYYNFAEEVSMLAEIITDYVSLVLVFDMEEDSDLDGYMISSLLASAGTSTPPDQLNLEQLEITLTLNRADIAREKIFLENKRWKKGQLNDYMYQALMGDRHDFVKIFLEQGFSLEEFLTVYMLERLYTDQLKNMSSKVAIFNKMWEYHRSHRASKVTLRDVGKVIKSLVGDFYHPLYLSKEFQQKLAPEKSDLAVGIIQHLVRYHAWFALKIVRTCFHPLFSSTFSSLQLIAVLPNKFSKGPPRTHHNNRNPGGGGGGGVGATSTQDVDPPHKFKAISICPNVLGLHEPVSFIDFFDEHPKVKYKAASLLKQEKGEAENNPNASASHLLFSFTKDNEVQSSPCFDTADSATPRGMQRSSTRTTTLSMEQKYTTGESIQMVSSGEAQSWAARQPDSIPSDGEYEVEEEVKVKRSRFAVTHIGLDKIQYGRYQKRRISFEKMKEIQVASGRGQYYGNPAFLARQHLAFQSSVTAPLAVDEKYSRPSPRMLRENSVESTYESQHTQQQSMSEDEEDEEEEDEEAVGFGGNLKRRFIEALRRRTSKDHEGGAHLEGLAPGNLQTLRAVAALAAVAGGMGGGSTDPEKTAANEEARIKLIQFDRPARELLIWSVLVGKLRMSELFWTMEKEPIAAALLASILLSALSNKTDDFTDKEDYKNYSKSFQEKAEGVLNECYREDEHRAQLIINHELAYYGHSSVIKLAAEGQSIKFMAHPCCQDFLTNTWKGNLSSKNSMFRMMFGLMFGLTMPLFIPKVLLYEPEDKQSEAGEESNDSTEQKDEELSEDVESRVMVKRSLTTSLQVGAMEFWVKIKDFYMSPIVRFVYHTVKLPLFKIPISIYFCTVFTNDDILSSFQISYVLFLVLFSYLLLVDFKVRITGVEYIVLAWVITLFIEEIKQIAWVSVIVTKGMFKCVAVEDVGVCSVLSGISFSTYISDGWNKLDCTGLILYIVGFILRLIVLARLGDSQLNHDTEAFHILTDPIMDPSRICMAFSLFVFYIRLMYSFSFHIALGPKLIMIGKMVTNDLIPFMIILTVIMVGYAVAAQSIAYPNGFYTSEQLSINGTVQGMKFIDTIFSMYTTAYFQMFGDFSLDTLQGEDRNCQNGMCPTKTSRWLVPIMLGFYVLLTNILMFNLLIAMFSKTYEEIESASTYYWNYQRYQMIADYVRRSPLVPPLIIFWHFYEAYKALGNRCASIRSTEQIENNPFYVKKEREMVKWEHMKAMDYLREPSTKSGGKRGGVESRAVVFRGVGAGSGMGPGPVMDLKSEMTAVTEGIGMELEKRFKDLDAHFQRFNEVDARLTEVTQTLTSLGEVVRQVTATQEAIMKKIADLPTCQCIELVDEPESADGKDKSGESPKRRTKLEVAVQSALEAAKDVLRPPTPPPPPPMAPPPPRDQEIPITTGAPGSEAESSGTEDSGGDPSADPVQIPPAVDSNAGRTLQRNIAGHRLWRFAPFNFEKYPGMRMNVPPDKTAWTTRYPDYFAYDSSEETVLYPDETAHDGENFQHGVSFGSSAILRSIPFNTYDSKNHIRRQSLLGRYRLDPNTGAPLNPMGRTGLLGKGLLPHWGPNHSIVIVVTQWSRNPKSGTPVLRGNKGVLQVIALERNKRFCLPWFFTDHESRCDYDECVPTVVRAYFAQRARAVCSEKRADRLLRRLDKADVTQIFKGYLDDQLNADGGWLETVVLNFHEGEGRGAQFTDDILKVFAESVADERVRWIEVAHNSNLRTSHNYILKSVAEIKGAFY

Sm.TRPMMCLZ = experiment: Ca2+ reporter (FLIPR) activation assay, Sm.TRPMMCLZ in HEK293 cells; type: cell-based, Schistosoma mansoni; details: at the tested concentrations, data not shown
Protocol: as §1, §2, §3, §4, §5, §6, §7, §8, §9, §10, §11

Sm.TRPMPZQ (wild-type) = Sm.TRPMPZQ (wild-type) (Schistosoma mansoni, UniProt A0A5K4F0X5); experiment: Ca2+ reporter (FLIPR) activation assay, wild-type Sm.TRPMPZQ in HEK293 cells; type: cell-based; details: for Emax: read-out: Bmax, wild-type Sm.TRPMPZQ activation
Sm.TRPMPZQ (wild-type), sequence (A0A5K4F0X5 entry or part of it): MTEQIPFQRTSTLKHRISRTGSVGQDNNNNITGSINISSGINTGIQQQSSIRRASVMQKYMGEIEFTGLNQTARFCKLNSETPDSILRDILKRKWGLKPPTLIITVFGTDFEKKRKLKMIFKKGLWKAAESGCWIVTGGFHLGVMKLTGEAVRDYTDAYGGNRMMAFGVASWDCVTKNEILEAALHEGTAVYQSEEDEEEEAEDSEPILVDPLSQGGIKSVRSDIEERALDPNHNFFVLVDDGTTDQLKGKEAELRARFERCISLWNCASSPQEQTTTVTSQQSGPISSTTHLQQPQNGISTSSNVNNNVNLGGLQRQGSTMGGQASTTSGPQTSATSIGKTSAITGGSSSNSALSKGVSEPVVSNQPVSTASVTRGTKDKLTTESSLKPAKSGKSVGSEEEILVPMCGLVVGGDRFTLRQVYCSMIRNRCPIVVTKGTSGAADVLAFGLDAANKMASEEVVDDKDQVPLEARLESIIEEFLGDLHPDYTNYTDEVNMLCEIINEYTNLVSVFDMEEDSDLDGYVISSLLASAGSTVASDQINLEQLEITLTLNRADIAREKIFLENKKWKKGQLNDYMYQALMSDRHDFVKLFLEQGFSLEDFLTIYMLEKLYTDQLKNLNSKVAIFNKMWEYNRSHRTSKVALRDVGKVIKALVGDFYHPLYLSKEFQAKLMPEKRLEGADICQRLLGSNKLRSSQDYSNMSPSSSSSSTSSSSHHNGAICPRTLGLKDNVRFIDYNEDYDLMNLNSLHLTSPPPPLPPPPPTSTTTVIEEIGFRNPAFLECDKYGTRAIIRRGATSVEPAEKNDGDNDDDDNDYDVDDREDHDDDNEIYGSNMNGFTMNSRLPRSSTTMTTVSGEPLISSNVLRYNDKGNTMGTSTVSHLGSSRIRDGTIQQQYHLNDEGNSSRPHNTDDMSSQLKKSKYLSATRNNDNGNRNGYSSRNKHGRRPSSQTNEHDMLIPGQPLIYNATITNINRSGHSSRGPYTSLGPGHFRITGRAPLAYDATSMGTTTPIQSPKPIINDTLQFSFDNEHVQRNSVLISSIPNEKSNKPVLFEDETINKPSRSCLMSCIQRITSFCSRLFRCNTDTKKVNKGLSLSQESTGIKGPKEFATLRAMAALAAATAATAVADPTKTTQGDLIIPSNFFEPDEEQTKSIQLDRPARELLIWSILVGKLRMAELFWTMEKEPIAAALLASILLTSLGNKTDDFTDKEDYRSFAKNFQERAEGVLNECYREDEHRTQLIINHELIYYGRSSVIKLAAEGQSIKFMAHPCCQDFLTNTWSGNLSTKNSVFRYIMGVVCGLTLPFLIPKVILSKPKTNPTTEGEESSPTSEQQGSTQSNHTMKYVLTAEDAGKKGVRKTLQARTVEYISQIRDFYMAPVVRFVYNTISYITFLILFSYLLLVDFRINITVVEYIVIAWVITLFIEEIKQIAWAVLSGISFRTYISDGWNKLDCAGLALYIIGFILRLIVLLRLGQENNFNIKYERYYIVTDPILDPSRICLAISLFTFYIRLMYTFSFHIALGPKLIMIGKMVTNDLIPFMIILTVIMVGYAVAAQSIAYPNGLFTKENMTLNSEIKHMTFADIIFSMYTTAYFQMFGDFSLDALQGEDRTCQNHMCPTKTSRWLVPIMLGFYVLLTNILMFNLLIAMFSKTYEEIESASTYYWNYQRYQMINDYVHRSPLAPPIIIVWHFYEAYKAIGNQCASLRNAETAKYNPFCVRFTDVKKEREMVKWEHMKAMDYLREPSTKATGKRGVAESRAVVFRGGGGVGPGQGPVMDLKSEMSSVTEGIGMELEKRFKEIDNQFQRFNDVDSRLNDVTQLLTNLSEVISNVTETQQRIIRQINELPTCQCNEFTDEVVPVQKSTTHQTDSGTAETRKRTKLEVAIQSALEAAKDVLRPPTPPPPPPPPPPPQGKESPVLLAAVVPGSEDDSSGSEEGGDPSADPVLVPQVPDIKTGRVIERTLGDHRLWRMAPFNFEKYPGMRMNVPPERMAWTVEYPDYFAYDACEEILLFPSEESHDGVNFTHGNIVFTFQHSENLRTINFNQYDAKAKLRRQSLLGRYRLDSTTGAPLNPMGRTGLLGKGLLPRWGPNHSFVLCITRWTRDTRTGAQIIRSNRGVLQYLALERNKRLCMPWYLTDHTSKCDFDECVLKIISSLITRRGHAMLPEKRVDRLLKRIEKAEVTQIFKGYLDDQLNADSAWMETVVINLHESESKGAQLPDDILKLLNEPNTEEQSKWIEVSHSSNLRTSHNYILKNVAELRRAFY
Protocol: as §2, §3, §4, §5, §6, §7, §8, §9
buffer containing 2.5 mM probenecid in HBSS (with Ca²⁺ and Mg²⁺), 20 mM HEPES, 0.3% BSA (Sigma, A7030), and 0.03% L-ascorbic acid (Sigma). Cells were incubated for 40 minutes at 37 °C and subsequently for 20 minutes at room temperature. […]
prepared in assay buffer without dye and probenecid and dispensed into separate flat-bottom 384-well plates. Calcium flux measurements were performed at room temperature using a […]
as §11

juvenile schistosomes = experiment: Microscopy analysis of juvenile morphology and motility (viability score 0-3); details: 10 μM, 72 h, Table S1
[2] = system: adult schistosomes (male and female worms); experiment: Adult worm ex vivo high-content image-based motility assay; type: cell-based, Schistosoma mansoni
Protocol: Adult schistosomes’ motility was determined using a high-content assay previously developed by our group, , with images analyzed in CellProfiler software. More details are provided in the Supporting Information.
as §14
“Area” and “False Negative Rate” from the MeasureObjectSizeShape and MeasureObjectOverlap modules, respectively. These measurements were then modeled by a multilevel generalized linear statistical model. The effects of the experimental treatments on […]
as §3, §4
with DMSO as a negative control.

[3] = system: juvenile schistosomes (21 days p.i.); experiment: XTT juvenile viability assay; type: cell-based, Schistosoma mansoni; details: 48 h
[4] = values of independent experiments
[5] = Schistosoma mansoni, 0 h, female adult worms, 0 h (immediately after addition), single experiment or geometric mean, read-out: Female worm motility inhibition (EC50)
[6] = Schistosoma mansoni, 0 h, male adult worms, 0 h (immediately after addition), single experiment or geometric mean, read-out: Male worm motility inhibition (EC50)
[7] = Schistosoma mansoni, 0 h, male, 0 h, individual experiments, read-out: Male worm motility inhibition (EC50), values of independent experiments
[8] = Schistosoma mansoni, 24 h, female adult worms, 24 h, single experiment or geometric mean, read-out: Female worm motility inhibition (EC50)
[9] = Schistosoma mansoni, 24 h, male adult worms, 24 h, single experiment or geometric mean, read-out: Male worm motility inhibition (EC50)
[10] = Schistosoma mansoni, 24 h, male, 24 h, individual experiments, read-out: Male worm motility inhibition (EC50), values of independent experiments
[11] = Schistosoma mansoni, 48 h, female adult worms, 48 h, single experiment or geometric mean, read-out: Female worm motility inhibition (EC50)
[12] = Schistosoma mansoni, 48 h, male adult worms, 48 h, single experiment or geometric mean, read-out: Male worm motility inhibition (EC50)
[13] = Schistosoma mansoni, 48 h, male, 48 h, individual experiments, read-out: Male worm motility inhibition (EC50), values of independent experiments
[14] = Schistosoma mansoni, 72 h, female adult worms, 72 h, single experiment or geometric mean, read-out: Female worm motility inhibition (EC50)
[15] = Schistosoma mansoni, 72 h, male adult worms, 72 h, single experiment or geometric mean, read-out: Male worm motility inhibition (EC50)
[16] = Schistosoma mansoni, 72 h, male, 72 h, individual experiments, read-out: Male worm motility inhibition (EC50), values of independent experiments
[17] = female adult worms, 0 h (immediately after addition), single experiment or geometric mean, read-out: Female worm motility inhibition (EC50)
[18] = female adult worms, 24 h, single experiment or geometric mean, read-out: Female worm motility inhibition (EC50)
[19] = male adult worms, 0 h (immediately after addition), single experiment or geometric mean, read-out: Male worm motility inhibition (EC50)
[20] = male adult worms, 48 h, single experiment or geometric mean, read-out: Male worm motility inhibition (EC50)
[21] = male adult worms, 72 h, single experiment or geometric mean, read-out: Male worm motility inhibition (EC50)
[22] = male, 24 h, individual experiments, read-out: Male worm motility inhibition (EC50), values of independent experiments
[23] = male, 48 h, individual experiments, read-out: Male worm motility inhibition (EC50), values of independent experiments
[24] = male, 72 h, individual experiments, read-out: Male worm motility inhibition (EC50), values of independent experiments
[25] = Schistosoma mansoni, male, 0-72 h, read-out: EC50 against male adult worms (motility), span over incubation times
[26] = female adult worms, 72 h, single experiment or geometric mean, read-out: Female worm motility inhibition (EC50)

Row | SMILES | Selectivity Index (CC50/EC50), Female [1] | Selectivity Index (CC50/EC50), Male [1] | CC50 at 48 h (in vitro) [µM] | CC50 at 48 h (in vitro; [4]) [µM] | Emax (Eg.TRPMPZQ) [%] | number of juvenile worms with viability score 0 (juvenile schistosomes) | number of juvenile worms with viability score 1 (juvenile schistosomes) | number of juvenile worms with viability score 2 (juvenile schistosomes) | number of juvenile worms with viability score 3 (juvenile schistosomes) | EC50 [2, 5] [µM] | EC50 [2, 6] [µM] | EC50 [2, 7] [µM] | EC50 [2, 8] [µM] | EC50 [2, 9] [µM] | EC50 [2, 10] [µM] | EC50 [2, 11] [µM] | EC50 [2, 12] [µM] | EC50 [2, 14] [µM] | EC50 [2, 15] [µM] | EC50 [2, 16] [µM] | also measured
1 | O=C(C1CCCCC1)N1CC(=O)N2CCc3ccc([N+](=O)[O-])cc3C2C1 (stereo not shown) [Compound 2, 9-NO2–PZQ] | 12.7 and 13 | 23.1 and 23 | 368 | 354 | 114 ± 10.5 | 70 | 3 | 7 | 74 | 27.7 | 10.7 | 10 | 28.8 | 14.3 | 10.3 | 29.1 | 15.9 | 30 | 15.4 | 11.9 | activation of Fh.TRPMPZQ (Fh.TRPMPZQ): did not activate; activation of Sm.TRPMMCLZ (Sm.TRPMMCLZ): did not activate; EC50 (Sm.TRPMPZQ (wild-type); 0.001 to 100 μM): 13.5 ± 0.49 µM; Emax (Sm.TRPMPZQ (wild-type)): 66.6 ± 1.98%; EC50 [2, 13]: 11.6 µM; EC50 [2, 17]: 27.7 µM; EC50 [2, 18]: 29 µM; EC50 ([2]; female adult worms, 48 h, single experiment or geometric mean, read-out: Female worm motility inhibition (EC50)): 29 µM; EC50 [2, 19]: 11 µM; EC50 ([2]; male adult worms, 24 h, single experiment or geometric mean, read-out: Male worm motility inhibition (EC50)): 14 µM; EC50 [2, 20]: 16 µM; EC50 [2, 21]: 15 µM; EC50 [2, 22]: 19.8 µM; EC50 [2, 23]: 21.7 µM; EC50 [2, 24]: 19.9 µM
2 | [N-]=[N+]=Nc1ccc2c(c1)C1CN(C(=O)C3CCCCC3)CC(=O)N1CC2 (stereo not shown) [Compound 4] | 16.6 and 17 | 97.7 and 98 | 156 | 155 | 145 ± 14.6 | 48 | 4 | 25 | 12 | 6.7 | 2.3 | 2.83 | 3.15 | 1.8 | 2.56 | 9.4 | 1.6 | 3.48 | 1.3 | 1.22 | activation of Fh.TRPMPZQ (Fh.TRPMPZQ): did not activate; parasite metabolic activity compared to the DMSO control group (XTT) ([3]; 100 μM): significantly decreased; viability at 100 µM ([3]; Schistosoma mansoni, mean ± SD, read-out: juvenile worm viability (XTT, % residual viability)): 44.6%; activation of Sm.TRPMMCLZ (Sm.TRPMMCLZ): did not activate; EC50 (Sm.TRPMPZQ (wild-type); 0.001 to 100 μM): 0.89 ± 0.03 µM; Emax (Sm.TRPMPZQ (wild-type)): 80.5 ± 2.19%; EC50 [2, 25]: 1.3 to 2.3 µM; EC50 [2, 18]: 3.1 µM; EC50 [2, 26]: 3.5 µM; EC50 ([2]; female, 0 h, individual experiments, read-out: Female worm motility inhibition (EC50), values of independent experiments): 14.8 µM and 3.02 µM; EC50 ([2]; female, 48 h, individual experiments, read-out: Female worm motility inhibition (EC50), values of independent experiments): 26.8 µM and 3.34 µM; EC50 ([2]; male, 0 h, individual experiments, read-out: Male worm motility inhibition (EC50), values of independent experiments): 1.93 µM; EC50 [2, 22]: 1.42 µM and 1.74 µM; EC50 [2, 23]: 2.37 µM and 1.1 µM and 1.71 µM; EC50 [2, 24]: 1 µM and 1.72 µM
3 | O=C(C1CCCCC1)N1CC(=O)N2CCc3ccc(-n4cc(C5=CCCCC5)nn4)cc3C2C1 (stereo not shown) [Compound 5b] | 0.3 | 0.6 | 28.5 | 28.7 | 10.4 ± 0.31 | 21 | 1 | 3 | 7 | 101 | 32.7 | 31.6 | 96.2 | 47 | 50.4 | 95 | 49.2 | 89.1 | 40.5 | 44.7 | Selectivity Index (SI), sex not specified ([1]; HepG2 vs adult worms, 48 h): < 1; EC50 for Eg.TRPMPZQ activation (Eg.TRPMPZQ): No signal; Bmax, wild-type Sm.TRPMPZQ activation (Sm.TRPMPZQ (wild-type)): No activity; EC50 for wild-type Sm.TRPMPZQ activation (Sm.TRPMPZQ (wild-type); 0.001 to 100 μM): failed to activate; also recorded: No activity; EC50 [2, 13]: 54.2 µM; EC50 ([2]; Schistosoma mansoni, female, 0-72 h, read-out: EC50 against female adult worms (motility), span over incubation times): > 30 µM; EC50 [2, 25]: > 30 µM; EC50 [2, 17]: 101 µM; EC50 [2, 18]: 96 µM; EC50 [2, 26]: 89 µM; EC50 [2, 19]: 33 µM; EC50 [2, 20]: 49 µM; EC50 [2, 21]: 40 µM; EC50 [2, 22]: 43.8 µM; EC50 [2, 23]: 44.6 µM; EC50 [2, 24]: 36.6 µM
